# From patent US11523980B2, “Use of a peptide for the treatment of epiderm” (Sederma, priority 2018, dated 2022)
# Marks after values point to notes of the source that are not given here. Residues, ends and D or L forms follow the SMILES beside them. *: point of attachment. Palmitoyl = CCCCCCCCCCCCCCCC(=O)*
# Key:
# [1] = system: normal human keratinocytes (NHK); assay: DNA-Array, mRNA expression in confluent keratinocytes; type: cell-based; details: 4 ppm
# Description: The following in vitro tests were performed on epidermal cells: normal human keratinocytes (NHK) or on skin explant or on reconstructed skin. The peptide according to the invention was tested, in solution in an inert solvent (ethanol), at recommended concentrations of use on the skin. The peptide according to the invention was contacted for 6 or 24 h with confluent KHN (n=3). Then the KHN mats were rinsed and the cells were crushed to extract their mRNAs. These mRNAs are then converted into small DNA sequences which are analyzed after deposition on DNA chips and amplification by a method similar to qRT-PCR (Real-Time Quantitative Reverse Transcription Polymerase Chain Reaction). The mRNA variations due to the peptide are compared to the control case (peptide solvent).
# filaggrin gene = assay: qRT-PCR analysis of filaggrin gene expression; type: cell-based, human
# Text: The genes of loricrin, filaggrin and filaggrin 2, three proteins involved in the building of the corneocyte or the moisturisation of the Stratum corneum, were statistically better expressed than in the solvent control (p<0.01). […] 3.66 times compared to control (p<0.01).
# [2] = system: normal human keratinocytes (NHK); assay: LC-MS/MS study of proteins in NHK culture (7 days); type: cell-based; details: 4 ppm
# Text: The same culture protocol as for the DNA-Array (1.1/above) was used but with a longer culture time (7 days), the protein productions taking longer to be detected with this LC-MS/MS method. The NHK culture medium (n=3) was changed every 3 days. At the end of this contact, the cells were lysed so as to extract the proteins and to analyze them in the form of crushed material by a method associating the action of a protease on the crushed material, the separation of the fragments by coupled liquid chromatography to mass spectrometry, then the identification and concentration of pre-existing proteins according to the nature and quantity of fragments obtained (LC-MS/MS). To conduct LC-MS/MS analysis on equivalent amounts of protein, the protein concentration was measured on the crushed material.
# (§1) A study of the variances and a Student's t test were carried out in order to judge the significance of the results.
# [3] = system: α-crystallin protein in reconstructed skin epidermis; assay: α-crystallin immunohistology on reconstructed skins; type: cell-based, human; details: for α-cristallin % of variation/control: reconstructed skin epidermis, 24 hours then following 18 days
# Description: Normal human fibroblasts were seeded in a matrix. A few days after keratinocytes were deposited on this equivalent dermis to form a uniform layer of cells. At this stage the whole was passed to an air-liquid interface (emersion) so as to form a pluristratified epidermis. After 21 days (approximately), a mature skin equivalent was obtained (with an epidermis comprising the stratum corneum).
# On the eve of the emergence phase, the layer of confluent human keratinocytes of these skins received the peptide according to the invention for 24 hours and then for the following 18 days (period of formation of the epidermis). Cryo-sections (7 μm) were made and the α-crystallin was labeled with fluorescent antibodies (immunohistology). The fluorescence was analyzed in photos, an equivalent surface was analyzed for all the photographs (n=51-59). Student's t test was performed.
# [4] = system: normal human keratinocytes (NHK); assay: Immunocytochemistry of differentiation markers and ceramides in NHK; type: cell-based; details: 2 ppm, 7 days
# Description: Confluent NHKs (n=3) were cultured as previously for 7 days in the presence or absence (control) of the peptide according to the invention, then immunocytochemistry markings were carried out using antibodies directed against proteins characteristic of the maturation of the epidermis: involucrin, loricrin and filaggrin, or of moisturizing: filaggrin, as well as ceramides (structuring elements of the Stratum corneum).
# (§2) A quantification of the number of cells was carried out in parallel for the 4 tests described in this part, so as to reduce the results to the number of cells.
# [5] = system: hyaluronic acid secretion in NHK; assay: Hyaluronic acid secretion by keratinocytes (ELISA); type: cell-based, human; details: for Hyaluronic acid % of variatio/control: ELISA
# Description: The moisturizing aspect was evaluated by the assay of hyaluronic acid produced by keratinocytes by an ELISA method.
# as §2
# transglutaminases = assay: Transglutaminase activity (fluorescent dansylcadaverine) in NHK; type: cell-based, human; details: contact up to 21 days
# Description: (§3) Finally, the influence of the peptide according to the invention on the activity of transglutaminases and on the expression of the transglutaminase-5 gene was evaluated.
# For this, confluent NHKs were brought into contact with the peptide according to the invention up to 21 days. Transglutaminase activity was assessed using a protocol using fluorescent dansylcadaverine which is bound to Stratum corneum proteins by these enzymes. An analysis of the fluorescence was performed, and the results compared to the solvent control.
# as §2
# transglutaminase-5 gene = assay: Transglutaminase-5 gene expression (qRT-PCR) in KHN; type: cell-based, human; details: 72 hours of contact
# Description: as §3
# With regard to transglutaminase-5, a qRT-PCR was performed after 72 hours of contact between the KHN and the peptide according to the invention.
# as §2
# confluent keratinocytes = assay: Intracellular calcium mobilization in confluent keratinocytes (fluorescent calcium probe); type: cell-based, human; details: 6 or 15 ppm; visible after about 30 minutes of contact
# Description: Confluent keratinocytes were loaded with a specific calcium probe. This molecule becomes very fluorescent in the presence of intracellular free calcium. The appearance of fluorescence under the microscope was monitored. The cells, once loaded, were rinsed and then received the peptide according to the invention at 6 or 15 ppm or a positive control (bradykinin).
# A study of the variances and a t test of Student were carried out in order to judge the significance of the results (n=3 for each condition).
# Lnc-RNA ANCR = Lnc-RNA ANCR expression (qRT-PCR) in confluent keratinocytes; type: cell-based, human; details: 24 h
# Description: In this test confluent keratinocytes were contacted with the peptide according to the invention for 24 hours, then the cells were rinsed, ground and their RNAs were extracted, converted into DNA and then analyzed by qRT-PCR.
# A study of the variances and a Student's t-test were carried out in order to judge the significance of the results (n=4 for each condition).
# desmoglein = assay: Desmoglein fluorescence immunohistology on abdominal skin explant; type: cell-based, human; details: cream containing 6 ppm applied daily, 6 days, vs placebo cream
# Text: (§4) Desmoglein was searched on sections of abdominal skin (person) who had received a cream containing 6 ppm of the peptide according to the invention or the placebo cream. After 6 days (cream applied daily), the skins were frozen and sectioned to look for desmoglein using antibodies against this protein (fluorescence immunohistology). Photos were captured using a fluorescence microscope and the images analyzed using suitable software. The results were compared to those of the placebo cream.
# KLK5 (kallikrein 5) = assay: KLK5 fluorescence immunohistology on abdominal skin explant; type: cell-based, human; details: cream containing 6 ppm applied daily, 6 days, vs placebo cream
# Text: as §4
# The same sections as those used for desmoglein, as well as the same method (fluorescence immunohistology) were used to analyze and quantify the effect of the peptide according to the invention on this desquamation marker.
# NHKs exposed to UVB = assay: Secretome of pro-inflammatory mediators by NHKs exposed to UVB (ELISA); type: cell-based, human; details: NHK + UVB
# Description: To test the active, keratinocytes were cultured under mild stress conditions (application of UVB radiation) so as to mimic experimental micro-inflammation of the skin. In this situation a significant decrease in their secretome of inflammation mediators will be interpreted in the sense of a repairing and protective action of the skin.
# NHKs in culture and at confluence were brought into contact with the peptide according to the invention (or its solvent) for 24 hours in a medium allowing their survival, then the mats were irradiated with UVB in a physiological buffer and placed back into contact with products to be tested for 24 hours. At the end of this incubation, the culture media were assayed by ELISA in order to know the quantities of pro-inflammatory mediators produced by these cells in response to irradiation. The results were compared with solvent control +/−irradiation. A cellular respiration test was conducted to evaluate the number of cells and standardize the results.
# as §1
smiles,measurement,setting,value
"CCCCCCCCCCCCCCCC(=O)NC(CCCCN)C(=O)NC(C(=O)NC(Cc1ccccc1)C(=O)NC(CCCCN)C(=O)O)C(C)O (stereo not shown) [peptide according to the invention, palmitoyl-lysyl-threonyl-phenylalanyl-lysine] (Palmitoyl-KTFK-OH; configuration not given here)",Toxic effects,[1]; 6 or 24 h contact,No toxic effects were noted.
same,Increase in production of mRNA coding for TRPC6 compared with the solvent control,[1]; 6 h,6.05 ×
same,Variation with respect to the control of expression of gene coding for Filaggrin,[1]; 6 hours contact,×2.32 *
same,Variation with respect to the control of expression of gene coding for Filaggrin 2,[1]; 6 hours contact,×2.42 *
same,Variation with respect to the control of expression of gene coding for Loricrin,[1]; 6 hours contact,×2.97 *
same,Variation with respect to the control of expression of gene coding for LCE2D,[1]; 24 hours contact,×1.84 **
same,Variation with respect to the control of expression of gene coding for LCE3B,[1]; 24 hours contact,×2.13 **
same,Variation with respect to the control of expression of gene coding for LCE3C,[1]; 24 hours contact,×3.25 **
same,Variation with respect to the control of expression of gene coding for LCE3D,[1]; 24 hours contact,×2.06 **
same,Variation with respect to the control of expression of gene coding for LCE3E,[1]; 24 hours contact,×2.33 **
same,Variation with respect to the control of expression of gene coding for SPRR2B,[1]; 24 hours contact,×2.13 **
same,Variation with respect to the control of expression of gene coding for SPRR2C,[1]; 24 hours contact,×1.58 **
same,Increase of filaggrin gene expression compared to control (qRT-PCR),filaggrin gene; 4 ppm,2.87 times
same,Increase of filaggrin gene expression compared to control (qRT-PCR),filaggrin gene; 6 ppm,3.66 times
same,Toxic effects,[2],No toxic effects were noted.
same,Variation with respect to the control of protein Filaggrin,[2]; LC-MS/MS,×4.16
same,Variation with respect to the control of protein Keratin 10,[2]; LC-MS/MS,×1.46
same,Variation with respect to the control of protein NICE-1,[2]; LC-MS/MS,×3.42
same,Variation with respect to the control of protein SPRR1A,[2]; LC-MS/MS,×1.55
same,Variation with respect to the control of protein α-cristallin,[2]; LC-MS/MS,×2.19
same,Toxic effects,"[3]; 4 and 6 ppm, reconstructed skin",No toxic effects were noted.
same,α-cristallin % of variation/control,[3]; 4 ppm,+61%; p < 0.01
same,α-cristallin % of variation/control,[3]; 6 ppm,+164%; p < 0.01
same,Toxic effects,[4],No toxic effects were noted.
same,Ceramides % of variation/control,[4]; immunofluorescence,+334%;
same,Filaggrin % of variation/control,[4]; immunofluorescence,+554%;
same,Involucrin % of variation/control,[4]; immunofluorescence,+60%;
same,Loricrin % of variation/control,[4]; immunofluorescence,+261%;
same,Toxic effects,[5]; 4 and 6 ppm,No toxic effects were noted.
same,Hyaluronic acid % of variatio/control,[5]; 4 ppm,+40%; p < 0.01
same,Hyaluronic acid % of variatio/control,[5]; 6 ppm,+91%; p < 0.01
same,Transglutaminase Intra-KHN activity % of variation/control,transglutaminases; 4 ppm,+45%; p < 0.01
same,Transglutaminase Intra-KHN activity % of variation/control,transglutaminases; 6 ppm,+107%; p < 0.01
same,Transglutaminase-5 Gene expression % of variation/control,transglutaminase-5 gene; 4 ppm,+133%; p < 0.01
same,Transglutaminase-5 Gene expression % of variation/control,transglutaminase-5 gene; 6 ppm,+798%; p < 0.01
same,"Intracellular calcium mobilization (visual, fluorescence microscope)",confluent keratinocytes,induces an intracellular calcium mobilization
same,ANCR ratio % of variation/control,Lnc-RNA ANCR; 4 ppm,−27%; p < 0.05
same,ANCR ratio % of variation/control,Lnc-RNA ANCR; 6 ppm,−34%; p < 0.01
same,Desmogleine % of variation/control,desmoglein,+24%; p < 0.01
same,KLK5 % of variation/control,KLK5 (kallikrein 5),+258%; p < 0.01
same,IL-1α % of variation/control,NHKs exposed to UVB; 2 ppm,−15%
same,IL-1β % of variation/control,NHKs exposed to UVB; 2 ppm,−14%
same,IL-6 % of variation/control,NHKs exposed to UVB; 2 ppm,−12%
same,PGE2 % of variation/control,NHKs exposed to UVB; 2 ppm,−31%
same,TNF-α % of variation/control,NHKs exposed to UVB; 2 ppm,−10%
same,IL-1α % of variation/control,NHKs exposed to UVB; 4 ppm,−38%
same,IL-1β % of variation/control,NHKs exposed to UVB; 4 ppm,−43%
same,IL-6 % of variation/control,NHKs exposed to UVB; 4 ppm,−70%
same,PGE2 % of variation/control,NHKs exposed to UVB; 4 ppm,−59%
same,TNF-α % of variation/control,NHKs exposed to UVB; 4 ppm,−56%
same,IL-1α % of variation/control,NHKs exposed to UVB; 6 ppm,−46%
same,IL-1β % of variation/control,NHKs exposed to UVB; 6 ppm,−54%
same,IL-6 % of variation/control,NHKs exposed to UVB; 6 ppm,−84%
same,PGE2 % of variation/control,NHKs exposed to UVB; 6 ppm,−74%
same,TNF-α % of variation/control,NHKs exposed to UVB; 6 ppm,−71%
